US20040247674A1, “Drug delivery system” (priority 2001, published 2004)

Test: release rates of active agents from core-membrane implants
Format: physicochemical
Settings: for release rate over time: Example 4 implant (FIG. 12): membrane PDMS/trifluoropropyl modified PDMS, fluoro-content 55 wt-%, thickness 0.25 mm
Description: The implant structure was as disclosed in FIG. 2. The first part of the core consisted of PDMS comprising levonorgestrel and the length was 35 mm. The second part of the core consisted of PEO-PDMS having 50% of PEO, comprising estradiol, and the length was 8 mm.
The core parts were encased in a membrane consisting of PEO-PDMS in a ratio of 10:90. The thickness of the membrane was 0.2 mm and the outer diameter of the implant 2.48 mm.
The implant structure was as disclosed in FIG. 2. The first part of the core consisted of PEO-PDMS in a ratio of 50:50 comprising compound 1 and the length was 34 mm. The second part of the core consisted of PEO-PDMS having 50% of PEO, comprising estradiol, and the length was 6 mm.
The core parts were encased in a membrane consisting of PEO-PDMS in a ratio of 20:80. The thickness of the membrane was 0.2 mm and the outer diameter of the implant 2.48 mm.
The implant structure was as disclosed in FIG. 2. The first part of the core consisted of Pt-catalysed PDMS comprising 60 weight-% MENT having a length of 44 mm and a diameter of 3.0 mm. The second part of the core consisted of peroxide-catalysed PDMS comprising 50 weight-% gestodene having a length of 12 mm and a diameter of 3.0 mm.
Both core parts were encapsulated by a membrane consisting of a mixture of PDMS and trifluoropropyl modified PDMS. The fluoro-content in the membrane varied from 55 weight-% to 75 weight-%. The thickness of the membrane was 0.25 or 0.35 mm and thus the outer diameter of the implant 3.5 or 3.7 mm, respectively.
MENT is represented by the trinagles and gestodene by the lozenges.

CC(=O)c1ccc(C2C[C@@]3(C)[C@@H](CCC3(O)C(F)(F)C(F)(F)F)[C@@H]3CCC4=CC(=O)CCC4=C23)cc1 (stereo partly shown) [compound 1, 11-(4-Acetylphenyl)-17-hydroxy-17-(1,1,2,2,2-pentafluoroethyl)estra-4,9-dien-3-one]
release rate of compound 1 versus target (Example 2 implant (FIG. 10): PEO-PDMS 50:50 core part 34 mm, membrane PEO-PDMS 20:80, 0.2 mm, target 50 μg/day): target release rates were obtained

C[C@@H]1CC2=CC(=O)CC[C@@H]2[C@H]2CC[C@]3(C)[C@@H](O)CC[C@H]3[C@@H]21 [MENT, 7-α-methyl-19-nortestosterone]
release rate over time: essentially constant over time

C#C[C@]1(O)C=C[C@H]2[C@@H]3CCC4=CC(=O)CC[C@@H]4[C@H]3CC[C@@]21CC [gestodene]
release rate over time: essentially constant over time | release rate of gestodene, membrane thickness 0.25 mm compared with 0.35 mm (Example 4 implant (FIG. 14): membrane fluoro-content 60 wt-%): higher
